Tested on: Pigweed (Amaranthus retroflexus)
Assay: Post-Emergent Test, herbicidal effectiveness
Assay type: in vivo
Settings: post-emergence, 504 h, 33 micrograms per cm^2, 3 weeks, 0-to-100 scale, read-out: Herbicidal Effectiveness, % Control Post, P

Point of comparison: Cc1nc(CNc2c(C)cccc2C)n[nH]1 [Compound 2A, 3-(2,6-dimethylphenylaminomethyl)-5-methyl-1,2,4-triazole], pest or weed control at 5000 µg/mL, 33 µg/cm2 0%. Against it:
- Cc1nnc(CN(C(=O)CCl)c2cccc(C(F)(F)F)c2)[nH]1 [Compound 26B] — the same, 0%
- CCc1cccc(C)c1NCc1nnc[nH]1 [Compound 17A] — the same, 0%
- Cc1nnc(CN(C(=O)CCl)c2c(C)cccc2Cl)[nH]1 [Compound 22B] — higher, 75%
- CCc1cccc(C)c1N(Cc1nnc(SC)n1C)C(=O)CCl [Compound 21B] — the same, 0%
- CSc1nnc(CN(C(=O)CCl)c2c(C)cccc2C)o1 [Compound 24B] — the same, 0%
- Cc1cccc(C)c1N(CCc1nnc[nH]1)C(=O)CCl [Compound 13] — the same, 0%

Tested on: Lambsquarter (Chenopodium album)
Assay: Post-Emergent Test, herbicidal effectiveness
Assay type: in vivo
Settings: post-emergence, 504 h, 33 micrograms per cm^2, 3 weeks, 0-to-100 scale, read-out: Herbicidal Effectiveness, % Control Post, L

Point of comparison: CCc1cccc(C)c1N(Cc1nnc(SC)n1C)C(=O)CCl [Compound 21B], pest or weed control at 5000 µg/mL, 33 µg/cm2 0%. Against it:
- Cc1nnc(CN(C(=O)CCl)c2cccc(C(F)(F)F)c2)[nH]1 [Compound 26B] — the same, 0%
- CCc1cccc(C)c1NCc1nnc[nH]1 [Compound 17A] — the same, 0%
- Cc1nnc(CN(C(=O)CCl)c2c(C)cccc2Cl)[nH]1 [Compound 22B] — higher, 20%
- CSc1nnc(CN(C(=O)CCl)c2c(C)cccc2C)o1 [Compound 24B] — the same, 0%
- Cc1nc(CNc2c(C)cccc2C)n[nH]1 [Compound 2A, 3-(2,6-dimethylphenylaminomethyl)-5-methyl-1,2,4-triazole] — the same, 0%
- Cc1cccc(C)c1N(CCc1nnc[nH]1)C(=O)CCl [Compound 13] — the same, 0%

Tested on: Mustard (Brassica arvensis)
Assay: Post-Emergent Test, herbicidal effectiveness
Assay type: in vivo
Settings: post-emergence, 504 h, 33 micrograms per cm^2, 3 weeks, 0-to-100 scale

Point of comparison: Cc1nnc(CN(C(=O)CCl)c2cccc(C(F)(F)F)c2)[nH]1 [Compound 26B], pest or weed control at 5000 µg/mL, 33 µg/cm2 0%. Against it:
- CCc1cccc(C)c1NCc1nnc[nH]1 [Compound 17A] — the same, 0%
- Cc1nnc(CN(C(=O)CCl)c2c(C)cccc2Cl)[nH]1 [Compound 22B] — higher, 25%
- CCc1cccc(C)c1N(Cc1nnc(SC)n1C)C(=O)CCl [Compound 21B] — the same, 0%
- CSc1nnc(CN(C(=O)CCl)c2c(C)cccc2C)o1 [Compound 24B] — the same, 0%
- Cc1nc(CNc2c(C)cccc2C)n[nH]1 [Compound 2A, 3-(2,6-dimethylphenylaminomethyl)-5-methyl-1,2,4-triazole] — the same, 0%
- Cc1cccc(C)c1N(CCc1nnc[nH]1)C(=O)CCl [Compound 13] — the same, 0%

Tested on: Watergrass (Echinochloa)
Assay: Post-Emergent Test, herbicidal effectiveness
Assay type: in vivo
Settings: post-emergence, 504 h, 33 micrograms per cm^2, 3 weeks, 0-to-100 scale, read-out: Herbicidal Effectiveness, % Control Post, W

Point of comparison: Cc1nnc(CN(C(=O)CCl)c2cccc(C(F)(F)F)c2)[nH]1 [Compound 26B], pest or weed control at 5000 µg/mL, 33 µg/cm2 0%. Against it:
- CCc1cccc(C)c1NCc1nnc[nH]1 [Compound 17A] — the same, 0%
- Cc1nnc(CN(C(=O)CCl)c2c(C)cccc2Cl)[nH]1 [Compound 22B] — higher, 60%
- CCc1cccc(C)c1N(Cc1nnc(SC)n1C)C(=O)CCl [Compound 21B] — the same, 0%
- CSc1nnc(CN(C(=O)CCl)c2c(C)cccc2C)o1 [Compound 24B] — the same, 0%
- Cc1nc(CNc2c(C)cccc2C)n[nH]1 [Compound 2A, 3-(2,6-dimethylphenylaminomethyl)-5-methyl-1,2,4-triazole] — the same, 0%
- Cc1cccc(C)c1N(CCc1nnc[nH]1)C(=O)CCl [Compound 13] — higher, 63%

Tested on: Crabgrass (Digitaria sanguinalis)
Assay: Post-Emergent Test, herbicidal effectiveness
Assay type: in vivo
Settings: post-emergence, 504 h, 33 micrograms per cm^2, 3 weeks, 0-to-100 scale, read-out: Herbicidal Effectiveness, % Control Post, C

Point of comparison: Cc1cccc(C)c1N(CCc1nnc[nH]1)C(=O)CCl [Compound 13], pest or weed control at 5000 µg/mL, 33 µg/cm2 60%. Against it:
- Cc1nnc(CN(C(=O)CCl)c2cccc(C(F)(F)F)c2)[nH]1 [Compound 26B] — lower, 0%
- CCc1cccc(C)c1NCc1nnc[nH]1 [Compound 17A] — lower, 0%
- Cc1nnc(CN(C(=O)CCl)c2c(C)cccc2Cl)[nH]1 [Compound 22B] — lower, 0%
- CCc1cccc(C)c1N(Cc1nnc(SC)n1C)C(=O)CCl [Compound 21B] — lower, 0%
- CSc1nnc(CN(C(=O)CCl)c2c(C)cccc2C)o1 [Compound 24B] — lower, 0%
- Cc1nc(CNc2c(C)cccc2C)n[nH]1 [Compound 2A, 3-(2,6-dimethylphenylaminomethyl)-5-methyl-1,2,4-triazole] — lower, 0%

Tested on: Wild Oats (Avena fatua)
Assay: Post-Emergent Test, herbicidal effectiveness
Assay type: in vivo
Settings: post-emergence, 504 h, 33 micrograms per cm^2, 3 weeks, 0-to-100 scale, read-out: Herbicidal Effectiveness, % Control Post, O

Point of comparison: Cc1nnc(CN(C(=O)CCl)c2c(C)cccc2Cl)[nH]1 [Compound 22B], pest or weed control at 5000 µg/mL, 33 µg/cm2 0%. Against it:
- Cc1nnc(CN(C(=O)CCl)c2cccc(C(F)(F)F)c2)[nH]1 [Compound 26B] — the same, 0%
- CCc1cccc(C)c1NCc1nnc[nH]1 [Compound 17A] — the same, 0%
- CCc1cccc(C)c1N(Cc1nnc(SC)n1C)C(=O)CCl [Compound 21B] — the same, 0%
- CSc1nnc(CN(C(=O)CCl)c2c(C)cccc2C)o1 [Compound 24B] — the same, 0%
- Cc1nc(CNc2c(C)cccc2C)n[nH]1 [Compound 2A, 3-(2,6-dimethylphenylaminomethyl)-5-methyl-1,2,4-triazole] — the same, 0%
- Cc1cccc(C)c1N(CCc1nnc[nH]1)C(=O)CCl [Compound 13] — higher, 20%

Tested on: Pigweed (Amaranthus retroflexus)
Assay: Pre-Emergent Test, herbicidal effectiveness
Assay type: in vivo
Settings: pre-emergence, 504 h, 33 micrograms per cm^2, 3 weeks, 0-to-100 scale, read-out: Herbicidal Effectiveness, % Control Pre, P
Method: (§1) An acetone solution of the test compound was prepared by mixing 750 mg of the compound, 220 mg of a nonionic surfactant and 25 ml of acetone. This solution was added to approximately 125 ml of water containing 156 mg of surfactant.
(§2) Seeds of the test vegetation were planted in a pot of soil and the test solution was sprayed uniformly onto the soil surface at a dose of 33 micrograms/cm^2. The pot was watered and placed in a greenhouse. […] At the end of this period, the herbicidal effectiveness of the compound was rated based on the physiological observations. A 0-to-100 scale was used, 0 representing no phytotoxicity, 100 representing complete kill.

Point of comparison: Cc1nnc(CN(C(=O)CCl)c2cccc(C(F)(F)F)c2)[nH]1 [Compound 26B], pest or weed control at 33 µg/cm2 0%. Against it:
- CCc1cccc(C)c1NCc1nnc[nH]1 [Compound 17A] — the same, 0%
- Cc1nnc(CN(C(=O)CCl)c2c(C)cccc2Cl)[nH]1 [Compound 22B] — higher, 93%
- CCc1cccc(C)c1N(Cc1nnc(SC)n1C)C(=O)CCl [Compound 21B] — the same, 0%
- CSc1nnc(CN(C(=O)CCl)c2c(C)cccc2C)o1 [Compound 24B] — higher, 10%
- Cc1nc(CNc2c(C)cccc2C)n[nH]1 [Compound 2A, 3-(2,6-dimethylphenylaminomethyl)-5-methyl-1,2,4-triazole] — the same, 0%
- Cc1cccc(C)c1N(CCc1nnc[nH]1)C(=O)CCl [Compound 13] — higher, 40%

Tested on: Lambsquarter (Chenopodium album)
Assay: Pre-Emergent Test, herbicidal effectiveness
Assay type: in vivo
Settings: pre-emergence, 504 h, 33 micrograms per cm^2, 3 weeks, 0-to-100 scale, read-out: Herbicidal Effectiveness, % Control Pre, L
Method: as §1, §2

Point of comparison: CCc1cccc(C)c1NCc1nnc[nH]1 [Compound 17A], pest or weed control at 33 µg/cm2 0%. Against it:
- Cc1nnc(CN(C(=O)CCl)c2cccc(C(F)(F)F)c2)[nH]1 [Compound 26B] — higher, 10%
- Cc1nnc(CN(C(=O)CCl)c2c(C)cccc2Cl)[nH]1 [Compound 22B] — higher, 85%
- CCc1cccc(C)c1N(Cc1nnc(SC)n1C)C(=O)CCl [Compound 21B] — the same, 0%
- CSc1nnc(CN(C(=O)CCl)c2c(C)cccc2C)o1 [Compound 24B] — higher, 10%
- Cc1nc(CNc2c(C)cccc2C)n[nH]1 [Compound 2A, 3-(2,6-dimethylphenylaminomethyl)-5-methyl-1,2,4-triazole] — the same, 0%
- Cc1cccc(C)c1N(CCc1nnc[nH]1)C(=O)CCl [Compound 13] — higher, 75%

Tested on: Mustard (Brassica arvensis)
Assay: Pre-Emergent Test, herbicidal effectiveness
Assay type: in vivo
Settings: pre-emergence, 504 h, 33 micrograms per cm^2, 3 weeks, 0-to-100 scale
Method: as §1, §2

Point of comparison: Cc1nnc(CN(C(=O)CCl)c2c(C)cccc2Cl)[nH]1 [Compound 22B], pest or weed control at 33 µg/cm2 80%. Against it:
- Cc1nnc(CN(C(=O)CCl)c2cccc(C(F)(F)F)c2)[nH]1 [Compound 26B] — lower, 10%
- CCc1cccc(C)c1NCc1nnc[nH]1 [Compound 17A] — lower, 0%
- CCc1cccc(C)c1N(Cc1nnc(SC)n1C)C(=O)CCl [Compound 21B] — lower, 0%
- CSc1nnc(CN(C(=O)CCl)c2c(C)cccc2C)o1 [Compound 24B] — lower, 10%
- Cc1nc(CNc2c(C)cccc2C)n[nH]1 [Compound 2A, 3-(2,6-dimethylphenylaminomethyl)-5-methyl-1,2,4-triazole] — lower, 0%
- Cc1cccc(C)c1N(CCc1nnc[nH]1)C(=O)CCl [Compound 13] — lower, 20%

Tested on: Watergrass (Echinochloa)
Assay: Pre-Emergent Test, herbicidal effectiveness
Assay type: in vivo
Settings: pre-emergence, 504 h, 33 micrograms per cm^2, 3 weeks, 0-to-100 scale, read-out: Herbicidal Effectiveness, % Control Pre, W
Method: as §1, §2

Point of comparison: CCc1cccc(C)c1N(Cc1nnc(SC)n1C)C(=O)CCl [Compound 21B], pest or weed control at 33 µg/cm2 98%. Against it:
- Cc1nnc(CN(C(=O)CCl)c2cccc(C(F)(F)F)c2)[nH]1 [Compound 26B] — lower, 65%
- CCc1cccc(C)c1NCc1nnc[nH]1 [Compound 17A] — lower, 0%
- Cc1nnc(CN(C(=O)CCl)c2c(C)cccc2Cl)[nH]1 [Compound 22B] — higher, 100%
- CSc1nnc(CN(C(=O)CCl)c2c(C)cccc2C)o1 [Compound 24B] — higher, 100%
- Cc1nc(CNc2c(C)cccc2C)n[nH]1 [Compound 2A, 3-(2,6-dimethylphenylaminomethyl)-5-methyl-1,2,4-triazole] — lower, 0%
- Cc1cccc(C)c1N(CCc1nnc[nH]1)C(=O)CCl [Compound 13] — lower, 97%

Tested on: Crabgrass (Digitaria sanguinalis)
Assay: Pre-Emergent Test, herbicidal effectiveness
Assay type: in vivo
Settings: pre-emergence, 504 h, 33 micrograms per cm^2, 3 weeks, 0-to-100 scale, read-out: Herbicidal Effectiveness, % Control Pre, C
Method: as §1, §2

Point of comparison: CSc1nnc(CN(C(=O)CCl)c2c(C)cccc2C)o1 [Compound 24B], pest or weed control at 33 µg/cm2 100%. Against it:
- Cc1nnc(CN(C(=O)CCl)c2cccc(C(F)(F)F)c2)[nH]1 [Compound 26B] — lower, 0%
- CCc1cccc(C)c1NCc1nnc[nH]1 [Compound 17A] — lower, 0%
- Cc1nnc(CN(C(=O)CCl)c2c(C)cccc2Cl)[nH]1 [Compound 22B] — the same, 100%
- CCc1cccc(C)c1N(Cc1nnc(SC)n1C)C(=O)CCl [Compound 21B] — lower, 0%
- Cc1nc(CNc2c(C)cccc2C)n[nH]1 [Compound 2A, 3-(2,6-dimethylphenylaminomethyl)-5-methyl-1,2,4-triazole] — lower, 0%
- Cc1cccc(C)c1N(CCc1nnc[nH]1)C(=O)CCl [Compound 13] — lower, 85%

Tested on: Wild Oats (Avena fatua)
Assay: Pre-Emergent Test, herbicidal effectiveness
Assay type: in vivo
Settings: pre-emergence, 504 h, 33 micrograms per cm^2, 3 weeks, 0-to-100 scale, read-out: Herbicidal Effectiveness, % Control Pre, O
Method: as §1, §2

Point of comparison: Cc1cccc(C)c1N(CCc1nnc[nH]1)C(=O)CCl [Compound 13], pest or weed control at 33 µg/cm2 25%. Against it:
- Cc1nnc(CN(C(=O)CCl)c2cccc(C(F)(F)F)c2)[nH]1 [Compound 26B] — lower, 0%
- CCc1cccc(C)c1NCc1nnc[nH]1 [Compound 17A] — lower, 0%
- Cc1nnc(CN(C(=O)CCl)c2c(C)cccc2Cl)[nH]1 [Compound 22B] — higher, 95%
- CCc1cccc(C)c1N(Cc1nnc(SC)n1C)C(=O)CCl [Compound 21B] — lower, 0%
- CSc1nnc(CN(C(=O)CCl)c2c(C)cccc2C)o1 [Compound 24B] — higher, 85%
- Cc1nc(CNc2c(C)cccc2C)n[nH]1 [Compound 2A, 3-(2,6-dimethylphenylaminomethyl)-5-methyl-1,2,4-triazole] — lower, 0%

Reference: patent publication US4243408A, “Herbicidal N-triazolylmethyl-substituted alpha-haloacetanilide” (Chevron Research Company, priority 1978, dated 1981)
